Consider one compound from patent publication US11230578B2, “Peptides and use of same in the treatment of diseases, disorders or conditions associated with a mutant P53” (Yeda Research and Development Co. Ltd., priority 2016, dated 2022).

Where two headings read alike, the source gives them in different places.

In series [1] the test system is ES2 ovarian cancer cells (p53 mutant S241F). The format is cell-based.
Experimental: Cells were cultured in 96 wells plates with 3000 cells/well. […] Then medium was removed and cell viability was determined by staining the cells with crystal violet (0.05%) in methanol/PBS (1:5, v/v), for 10 min, followed by 3 washes with PBS. 10% acetic acid was added to each well for 10 min. OD was determined at 595 nm.
Cells, ES2 Con expressing endogenous mp53^S241F, and ES2 KO cells in which p53 was stably knocked out using CRISPR/Cas9 (ES2 p53KO), to control for specificity for mutp53 were cultured in 96 wells plates with 3000 cells/well. Indicated peptides were added at a concentration of 8 μg/ml and the plates incubated for additional 48 h at 37° C. Then medium was removed and cell viability was determined by staining the cells with crystal violet (0.05%) in methanol/PBS (1:5, v/v), for 10 min, followed by 3 washes with PBS. 10% acetic acid was added to each well for 10 min. OD was determined at 595 nm.
Cells were cultured in 96 wells plates with 3000 cells/well. Serial dilutions of different peptides were added and the plates incubated for additional 48 h at 37° C. Then the medium was removed and cell viability was determined by staining the cells with crystal violet (0.05%) in methanol/PBS (1:5, v/v), for 10 min, followed by 3 washes with PBS. 10% acetic acid was added to each well for 10 min. OD was determined at 595 nm. Results are normalized to non-treated cells 100% viability.
Cells were cultured in 96 wells plates with 2500-4000 cells/well. Serial dilutions of different peptides were added and the plates incubated for additional 48 h at 37° C. Then medium was removed and cell viability was determined by staining the cells with crystal violet (0.05%) in methanol/PBS (1:5, v/v), for 10 min, followed by 3 washes with PBS. 10% acetic acid was added to each well for 10 min. OD was determined at 595 nm.
ES2 Cells were cultured in 96 wells plates with 3000 cells/well. […] Then medium was removed and cell viability was determined by staining the cells with crystal violet (0.05%) in methanol/PBS (1:5, v/v), for 10 min, followed by 3 washes with PBS. 10% acetic acid was added to each well for 10 min. OD was determined at 595 nm.
Cells, ES2 Con expressing endogenous mp53S241F, and ES2 KO cells in which p53 was stably knocked out using CRISPR/Cas9 (ES2 p53KO), to control for specificity for mutp53 were cultured in 96 wells plates with 3000 cells/well. The indicated peptides were added at a concentration of 8 μg/ml and the plates incubated for additional 48 h at 37° C. Then medium was removed and cell viability was determined by staining the cells with crystal violet (0.05%) in methanol/PBS (1:5, v/v), for 10 min, followed by 3 washes with PBS. 10% acetic acid was added to each well for 10 min. OD was determined at 595 nm.
The test system of series [2] is ES2 cells expressing luciferase. The series can be described thus: ES2 ovarian cancer mouse xenograft model, luciferase live imaging. Type of series: in vivo, nude mice. On the procedure: 2*10^5 ES2 cells expressing luciferase were injected into the hips of nude mice. Bioluminescence was measured. […] The background threshold detection level of the IVIS system was about 5×10^6 photons. […]
Mice (6 weeks Athymic nude) were injected subcutaneously with 2×10^5-10^6 cells into each […]. All the cell lines employed in these experiments stably express a luciferase reporter gene to enable monitoring of tumor growth by live imaging. 4-18 days later, when tumors reached visible size, the mice were randomly divided into several groups: a control group, treated with either a single control peptide, and groups treated with effective peptide, either a single peptide. Peptides were administered either by intratumoral injection of 10 μg peptide per tumor in 40 μl PBS, three times a week or by Alzet mini pumps 0.8 mg for two weeks. Tumor growth over time was measured by live imaging, using the IVIS2000 system. Exposure time was calibrated to 20 seconds. 16 images were taken over 8 minutes and peak luminescence values were taken for each tumor. Experiments were conducted until tumors reached maximal allowed size of 1 cm^3, at which mice were sacrificed and tumors extracted, measured and weighed.

Series [3] in a line: Pharmacokinetic study, plasma half life. Type of series: in vivo. An excerpt: FIGS. 4A-D show the pharmacokinetics of various modes of administration.

Take `CCCCCCCCCCCCCC(=O)N[C@@H](CCCNC(=N)N)C(=O)N[C@@H](CCCNC(=N)N)C(=O)N[C@@H](Cc1c[nH]cn1)C(=O)N[C@@H](CO)C(=O)N[C@H](C(=O)N1CCC[C@H]1C(=O)N[C@@H](Cc1c[nH]cn1)C(=O)N1CCC[C@H]1C(=O)N[C@@H](CC(=O)O)C(=O)O)[C@@H](C)O` [pCAP-250]: the IC50 was 3.2 µM in series [1] (48 h) and 1.9 µM in series [1] (read-out: IC50 for pCAP-250 in combination with cisplatin, cell viability, ES2 cells, together with 1 μg/ml of cisplatin, 48 h, estimated). Also, in series [1] (ES2 cells, FIG. 1), the “viability of the cancer cells in the presence of peptide” value is given as “reduced significantly”. For the same compound, the “combination effect of pCAP-250 and cisplatin” value in series [1] (ES2 cells, pCAP-250 dilutions + 1 μg/ml cisplatin, 48 h) is given as “synergistic effect”. The “effect on tumor development of ES2 cells” value was “significant effect” in series [2] (intratumoral injections, 0.4 mg/kg 3 times a week) and “significant effect” in series [2] (subcutaneously by Alzet minipumps, 2.3 mg/kg per day). The half-life in series [3] (iv, 1 mg/kg, administered intravenously) was in the range of 0.8 to 1.8 h; in series [3] (sc, administered subcutaneously), 3 to 8 h.

What is called IC50 is the concentration that gives 50% inhibition. Usually half-life stands for the time in which the quantity being followed falls by half. A low value points to fast loss.
